From the NIST ThermoML archive (doi:10.1016/j.jct.2011.10.001)

Key:
[1] = for molar entropy: 101.33 kPa, Vacuum adiabatic calorimetry; for vapor or sublimation pressure: Ebulliometric method (Recirculating still)
[2] = Molar enthalpy of transition or fusion; conditions: Crystal; Adiabatic calorimetry

CCCC(=O)OC [methyl butanoate]
[1]
Conditions	Triple point temperature [K]	molar entropy [J/K/mol]	vapor or sublimation pressure [kPa]
5 K, Crystal	–	0.119	–
10 K, Crystal	–	0.949	–
15 K, Crystal	–	2.987	–
20 K, Crystal	–	6.126	–
25 K, Crystal	–	10.07	–
30 K, Crystal	–	14.55	–
35 K, Crystal	–	19.38	–
40 K, Crystal	–	24.39	–
45 K, Crystal	–	29.43	–
50 K, Crystal	–	34.51	–
55 K, Crystal	–	39.59	–
60 K, Crystal	–	44.66	–
65 K, Crystal	–	49.71	–
70 K, Crystal	–	54.67	–
75 K, Crystal	–	59.5	–
80 K, Crystal	–	64.19	–
85 K, Crystal	–	68.76	–
90 K, Crystal	–	73.24	–
95 K, Crystal	–	77.63	–
100 K, Crystal	–	81.94	–
110 K, Crystal	–	90.3	–
120 K, Crystal	–	98.36	–
130 K, Crystal	–	106.18	–
140 K, Crystal	–	113.66	–
150 K, Crystal	–	120.98	–
160 K, Crystal	–	128.13	–
170 K, Crystal	–	135.11	–
180 K, Crystal	–	141.93	–
190 K, Crystal	–	148.58	–
190.09 K, Crystal	–	148.66	–
190.09 K, Liquid	–	208.44	–
200 K, Liquid	–	217.84	–
210 K, Liquid	–	226.9	–
220 K, Liquid	–	235.55	–
230 K, Liquid	–	243.86	–
240 K, Liquid	–	251.84	–
250 K, Liquid	–	259.58	–
260 K, Liquid	–	267.06	–
270 K, Liquid	–	274.38	–
280 K, Liquid	–	281.36	–
290 K, Liquid	–	288.26	–
298.15 K, Liquid	–	293.75	–
300 K, Liquid	–	295	–
310 K, Liquid	–	301.48	–
316.24 K, Liquid	–	–	10.8
320 K, Liquid	–	307.88	–
321.02 K, Liquid	–	–	13.43
326.17 K, Liquid	–	–	16.83
330 K, Liquid	–	314.12	–
331.33 K, Liquid	–	–	20.88
335.84 K, Liquid	–	–	25.07
340 K, Liquid	–	320.27	–
341.17 K, Liquid	–	–	30.91
346.14 K, Liquid	–	–	37.26
350 K, Liquid	–	326.34	–
351.81 K, Liquid	–	–	45.83
357.57 K, Liquid	–	–	56.12
360 K, Liquid	–	332.33	–
363.05 K, Liquid	–	–	67.49
368.86 K, Liquid	–	–	81.57
370 K, Liquid	–	338.15	–
373.81 K, Liquid	–	–	95.31
374.54 K, Liquid	–	–	97.44
375.25 K, Liquid	–	–	99.6
Crystal, fractional melting	190.1	–	–

Conditions	Molar enthalpy of transition or fusion [kcal/mol]
[2]	2.72
